Measurements published in PubChem BioAssay AID256 (DTP/NCI, 2004).
Where “and” joins values, the source holds several entries; their conditions need not be identical. Equal entries are not always repeated. Inconclusive results and toxic doses are left out. Rule for the calls: active = survival T/C of 150% or more; inactive = T/C below 125% in these data.

Tested on: CD2F1 mice, L1210 leukemia ip, survival T/C
Test: NCI In Vivo Anticancer Drug Screen. Data for tumor model L1210 Leukemia (intraperitoneal) in CD2F1 (CDF1) mice
Conditions: higher = longer survival
In short: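 Implant tumor; dose compound or vehicle; measure endpoint in both groups; report treated divided by control.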

[1] = endpoint: mean survival time, dose: 50.0 mg/kg/injection, schedule: Q04DX002 (ip), vehicle: saline with Tween-80
[2] = endpoint: mean survival time, dose: 100.0 mg/kg/injection, schedule: Q04DX002 (ip), vehicle: saline with Tween-80
[3] = endpoint: mean survival time, dose: 100.0 mg/kg/injection, schedule: Q04DX003 (ip), vehicle: saline with Tween-80
[4] = endpoint: mean survival time, dose: 200.0 mg/kg/injection, schedule: Q04DX003 (ip), vehicle: saline with Tween-80
[5] = endpoint: mean survival time, dose: 400.0 mg/kg/injection, schedule: Q04DX003 (ip), vehicle: saline with Tween-80
[6] = endpoint: mean survival time, dose: 12.5 mg/kg/injection, schedule: Q01DX009 (ip), vehicle: saline with Tween-80
[7] = endpoint: mean survival time, dose: 200.0 mg/kg/injection, schedule: Q04DX002 (ip), vehicle: saline with Tween-80
[8] = endpoint: mean survival time, dose: 100.0 mg/kg/injection, schedule: Q01DX009 (ip), vehicle: saline with Tween-80
[9] = endpoint: mean survival time, dose: 200.0 mg/kg/injection, schedule: Q01DX009 (ip), vehicle: saline with Tween-80
[10] = endpoint: mean survival time, dose: 400.0 mg/kg/injection, schedule: Q01DX009 (ip), vehicle: saline with Tween-80
[11] = endpoint: mean survival time, dose: 50.0 mg/kg/injection, schedule: Q01DX009 (ip), vehicle: saline with Tween-80

Measured: T/C

C=CCN1C(=O)C=CC1=O
inactive: endpoint: mean survival time, dose: 25.0 mg/kg/injection, schedule: Q04DX002 (ip), vehicle: saline with Tween-80 95 % of control | [1] 91 % of control | [2] 88 % of control

O=[N+]([O-])c1ccc(N2N=NC3C4CCC(C4)C32)cc1 (stereo not given)
inactive: [3] 93 % of control | [4] 91 % of control | [5] 96 % of control

O=[N+]([O-])c1ccc(S(=O)Cc2ccccc2)c([N+](=O)[O-])c1 (stereo not given)
inactive: endpoint: mean survival time, dose: 75.0 mg/kg/injection, schedule: Q01DX001 (ip), vehicle: other 100 % of control

O=C1C2C3CCC(C3)C2N1Cc1ccccc1 (stereo not given)
inactive: endpoint: mean survival time, dose: 100.0 mg/kg/injection, schedule: Q04DX002 (ip), vehicle: other 93 % of control | endpoint: mean survival time, dose: 200.0 mg/kg/injection, schedule: Q04DX002 (ip), vehicle: other 96 % of control | endpoint: mean survival time, dose: 400.0 mg/kg/injection, schedule: Q04DX002 (ip), vehicle: other 96 % of control

COC1=CCC23C(=O)C=CC(=O)C2(C1)C(=O)c1ccccc1C3=O (stereo not given)
inactive: endpoint: median survival time, dose: 3.12 mg/kg/injection, schedule: Q01DX009 (ip), vehicle: saline with Tween-80 102 % of control | endpoint: median survival time, dose: 6.25 mg/kg/injection, schedule: Q01DX009 (ip), vehicle: saline with Tween-80 105 % of control | endpoint: median survival time, dose: 12.5 mg/kg/injection, schedule: Q01DX009 (ip), vehicle: saline with Tween-80 112 % of control | endpoint: median survival time, dose: 25.0 mg/kg/injection, schedule: Q01DX009 (ip), vehicle: saline with Tween-80 104 % of control

CN(C)c1ccc(C2OC3(CCCCC3)C[N+]23CCCC3)cc1 (stereo not given)
inactive: endpoint: mean survival time, dose: 3.12 mg/kg/injection, schedule: Q01DX009 (ip), vehicle: saline with Tween-80 101 % of control | endpoint: mean survival time, dose: 6.25 mg/kg/injection, schedule: Q01DX009 (ip), vehicle: saline with Tween-80 97 % of control | [6] 97 % of control

Nc1ncnc2c1ncn2[C@@H](/C=N\O)O[C@@H](/C=N\O)CO
inactive: endpoint: median survival time, dose: 12.5 mg/kg/injection, schedule: Q01DX005 (ip), vehicle: water 100 % of control | endpoint: median survival time, dose: 25.0 mg/kg/injection, schedule: Q01DX005 (ip), vehicle: water 96 % of control | endpoint: median survival time, dose: 50.0 mg/kg/injection, schedule: Q01DX005 (ip), vehicle: water 103 % of control | endpoint: median survival time, dose: 100.0 mg/kg/injection, schedule: Q01DX005 (ip), vehicle: water 97 % of control | endpoint: median survival time, dose: 200.0 mg/kg/injection, schedule: Q01DX005 (ip), vehicle: water 90 % of control

N/C(=C\C(=O)c1ccccc1)c1ccccc1
inactive: [3] 94 % of control | [4] 107 % of control | [5] 100 % of control

O=N/C=C/C(=N/Nc1ccc(C(=O)O)cc1)[N+](=O)[O-]
inactive: endpoint: mean survival time, dose: 100.0 mg/kg/injection, schedule: Q04DX003 (ip), vehicle: saline 96 % of control | endpoint: mean survival time, dose: 200.0 mg/kg/injection, schedule: Q04DX003 (ip), vehicle: saline 96 % of control | endpoint: mean survival time, dose: 400.0 mg/kg/injection, schedule: Q04DX003 (ip), vehicle: saline 90 % of control

CN(C)C(=S)Oc1c([N+](=O)[O-])cc([N+](=O)[O-])cc1C(C)(C)C
inactive: [2] 91 % of control

Nn1cnnc1SCc1ccccc1
inactive: endpoint: mean survival time, dose: 100.0 mg/kg/injection, schedule: Q04DX003 (ip), vehicle: other 100 % of control | endpoint: mean survival time, dose: 200.0 mg/kg/injection, schedule: Q04DX003 (ip), vehicle: other 97 % of control | endpoint: mean survival time, dose: 400.0 mg/kg/injection, schedule: Q04DX003 (ip), vehicle: other 105 % of control

CCOC(=O)NCC[N+](C)(C)C
inactive: endpoint: mean survival time, dose: 6.25 mg/kg/injection, schedule: Q04DX003 (ip), vehicle: saline 100 % of control | endpoint: mean survival time, dose: 12.5 mg/kg/injection, schedule: Q04DX003 (ip), vehicle: saline 102 % of control | endpoint: mean survival time, dose: 25.0 mg/kg/injection, schedule: Q04DX003 (ip), vehicle: saline 105 % of control

CCCCCCCCCCCCCCCCCCCCC1CCCCC1
inactive: endpoint: mean survival time, dose: 100.0 mg/kg/injection, schedule: Q01DX001 (ip), vehicle: saline with Tween-80 91 % of control | endpoint: mean survival time, dose: 200.0 mg/kg/injection, schedule: Q01DX001 (ip), vehicle: saline with Tween-80 98 % of control | endpoint: mean survival time, dose: 400.0 mg/kg/injection, schedule: Q01DX001 (ip), vehicle: saline with Tween-80 92 % of control

O=c1[nH]cc(Br)c(=O)[nH]1
inactive: [2] 101 % of control | [7] 97 % of control | endpoint: mean survival time, dose: 400.0 mg/kg/injection, schedule: Q04DX002 (ip), vehicle: saline with Tween-80 106 % of control

CCS(=O)(=O)/C=C(\I)C(C)(C)C
inactive: [8] 97 % of control | [3] 98 % of control | [9] 102 % of control | [4] 102 % of control | [10] 100 % of control | [5] 95 % of control

CN(C)C(=O)/N=N/C(=O)N(C)C
inactive: endpoint: mean survival time, dose: 100.0 mg/kg/injection, schedule: Q01DX001 (ip), vehicle: saline 104 % of control

CC1(C)COC2(c3ccccc3)N1C(=C(Cl)Cl)OC(=O)C2(Cl)Cl (stereo not given)
inactive: endpoint: mean survival time, dose: 75.0 mg/kg/injection, schedule: Q01DX001 (ip), vehicle: saline with Tween-80 101 % of control | endpoint: mean survival time, dose: 150.0 mg/kg/injection, schedule: Q01DX001 (ip), vehicle: saline with Tween-80 90 % of control | endpoint: mean survival time, dose: 300.0 mg/kg/injection, schedule: Q01DX001 (ip), vehicle: saline with Tween-80 109 % of control

CN(C)c1ccc(N=Nc2ccc(Cl)c(Cl)c2)cc1
inactive: [3] 98 % of control | [4] 95 % of control | [5] 96 % of control

Cc1ccc(NC(=O)N2CCCCC2C)cc1[N+](=O)[O-] (stereo not given)
inactive: [11] 102 % of control | [8] 94 % of control | [9] 102 % of control

COc1cc(/C=C/C(=O)O)ccc1OC(C)=O
inactive: endpoint: mean survival time, dose: 100.0 mg/kg/injection, schedule: Q01DX009 (ip), vehicle: saline 98 % of control | endpoint: mean survival time, dose: 200.0 mg/kg/injection, schedule: Q01DX009 (ip), vehicle: saline 100 % of control | endpoint: mean survival time, dose: 400.0 mg/kg/injection, schedule: Q01DX009 (ip), vehicle: saline 93 % of control

CCCC[P+](CCCC)(CCCC)Cc1ccc([N+](=O)[O-])cc1
inactive: endpoint: mean survival time, dose: 12.5 mg/kg/injection, schedule: Q01DX009 (ip), vehicle: Klucel (hydroxypropylcellulose) (HPC) 104 % of control | endpoint: mean survival time, dose: 25.0 mg/kg/injection, schedule: Q01DX009 (ip), vehicle: Klucel (hydroxypropylcellulose) (HPC) 96 % of control | endpoint: mean survival time, dose: 25.0 mg/kg/injection, schedule: Q04DX003 (ip), vehicle: Klucel (hydroxypropylcellulose) (HPC) 94 % of control | endpoint: mean survival time, dose: 50.0 mg/kg/injection, schedule: Q01DX001 (ip), vehicle: Klucel (hydroxypropylcellulose) (HPC) 96 % of control | endpoint: mean survival time, dose: 50.0 mg/kg/injection, schedule: Q01DX009 (ip), vehicle: Klucel (hydroxypropylcellulose) (HPC) 115 % of control | endpoint: mean survival time, dose: 50.0 mg/kg/injection, schedule: Q04DX002 (ip), vehicle: Klucel (hydroxypropylcellulose) (HPC) 96 % of control | endpoint: mean survival time, dose: 50.0 mg/kg/injection, schedule: Q04DX003 (ip), vehicle: Klucel (hydroxypropylcellulose) (HPC) 94 % of control

CC(C)(C)OOCC1CO1 (stereo not given)
inactive: [8] 92 % of control | [3] 98 % of control | [9] 94 % of control | [4] 105 % of control | [10] 98 % of control | [5] 96 % of control

O=C1C=C(Nc2ccccc2)CCC1
inactive: [8] 94 % of control | [9] 100 % of control | [10] 97 % of control

CCN1/C(=C/c2ccc3ccccc3[n+]2CC)C=Cc2ccccc21
inactive: endpoint: mean survival time, dose: 0.25 mg/kg/injection, schedule: Q01DX001 (ip), vehicle: other 95 % of control | endpoint: mean survival time, dose: 0.5 mg/kg/injection, schedule: Q01DX001 (ip), vehicle: other 97 % of control | endpoint: mean survival time, dose: 1.0 mg/kg/injection, schedule: Q01DX001 (ip), vehicle: other 95 % of control

CNC(=O)CCC(NC(=O)c1ccc(N(C)Cc2cnc3nc(N)nc(N)c3n2)cc1)C(=O)O (stereo not given)
inactive: endpoint: mean survival time, dose: 1.0 mg/kg/injection, schedule: Q01DX009 (ip), vehicle: sodium bicarbonate 103 % of control | endpoint: mean survival time, dose: 10.0 mg/kg/injection, schedule: Q01DX009 (ip), vehicle: sodium bicarbonate 113 % of control | endpoint: mean survival time, dose: 25.0 mg/kg/injection, schedule: Q01DX009 (ip), vehicle: sodium bicarbonate 121 % of control

O=S(=O)(OCCCCCOS(=O)(=O)c1cccnc1)c1cccnc1
inactive: endpoint: mean survival time, dose: 10.0 mg/kg/injection, schedule: Q04DX002 (ip), vehicle: saline with Tween-80 95 % of control | endpoint: mean survival time, dose: 40.0 mg/kg/injection, schedule: Q04DX002 (ip), vehicle: saline with Tween-80 98 % of control

CC1(C)N=C(N)N=C(N)N1c1ccc(OCCCCNC(=O)c2ccc(S(=O)(=O)F)cc2)c(Cl)c1
inactive: [6] 110 % of control | endpoint: mean survival time, dose: 25.0 mg/kg/injection, schedule: Q01DX009 (ip), vehicle: saline with Tween-80 110 % of control | [11] 119 % of control and 109 % of control | [1] 104 % of control | [2] 104 % of control | [7] 104 % of control
